Like-named read-outs stand apart in the source and are kept apart here.
Legend:
Format in all cases: cell-based
RSV A2 = assay: RSV NHBE EC50 (RSV A2 antiviral assay in NHBE cells); settings: read-out: RSV NHBE EC50
In short: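 Step 1: seed NHBE cells (7,500/well, BEGM) overnight. Step 2: add 3-fold diluted compound, DMSO 0.05%. Step 3: infect with RSV A2, 1×10^4.5 TCID/mL; incubate 4 days, 37° C. Step 4: CellTiter-Glo luminescence.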

RSV strain A2 = assay: microbe, parasite or virus in culture; settings: Table 3, HEp-2 cells, RSV A2, 4 days, read-out: RSV HEp-2 EC50
In short: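 Cytopathic-effect protection assay: HEp-2 cells (50,000/mL) infected with pre-titered RSV A2 onto 3-fold serial compound dilutions, incubated 4 days at 37° C. Cell viability read by CellTiter-Glo luminescence; percent inhibition derived against 0% and 100% virus-inhibition controls.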

DENV2 replicon = assay: DENV-2 Huh-7 Rep EC50 (replicon luminescence)
In short: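 EC50 derived from luminescence dose-response, normalised to DMSO-only 0% inhibition wells, after 1.5 h with EnduRen substrate. Compounds were first exposed for 48 h at 37° C to DENV2 replicon Huh-7 cells (5,000/well).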

[1] = human respiratory syncytial virus, NHBE, 96 h, Table 3, NHBE cells, RSV A2, 4 days
[2] = human respiratory syncytial virus, NHBE, Table 5 comparative activity, 2',3'-OH vs -OC(O)iPr
[3] = human respiratory syncytial virus, HEp-2, 96 h
[4] = Dengue virus, DENV2, Huh-7, 48 h, read-out: DENV-2 REP Huh7 EC50
[5] = Table 3, NHBE cells, RSV A2, 4 days
[6] = Table 3, Huh-7 DENV2 replicon cells, 48 hours, read-out: DENV-2 REP Huh7 EC50

Structure (SMILES) | EC50 (RSV A2; [1]) | EC50 (RSV A2; [2]) | EC50 (RSV strain A2; [3]) | EC50 (DENV2 replicon; [4]) | EC50 (DENV2 replicon; Dengue virus, DENV2, Huh-7, read-out: DENV Rep EC50) | EC50 (RSV A2; [5]) | EC50 (RSV strain A2) | EC50 (DENV2 replicon; [6])
COC(=O)[C@H](C)N[P@](=O)(OC[C@@]1(C#N)O[C@@H](c2ccc3c(N)ncnn23)[C@H](OC(=O)C(C)C)[C@@H]1OC(=O)C(C)C)Oc1ccccc1 (single isomer, unassigned) [Example 140] | 0.014 µM | 0.014 µM | 0.042 µM | 5.27 µM | – | – | – | –
CCC(=O)O[C@H]1[C@H](c2ccc3c(N)ncnn23)O[C@](C#N)(CO[P@@](=O)(N[C@@H](C)C(=O)OC)Oc2ccccc2)[C@H]1OC(=O)CC (single isomer, unassigned) [Example 143] | 0.018 µM | – | 0.092 µM | 5.57 µM | – | – | – | –
CCOC(=O)[C@H](C)N[P@](=O)(OC[C@@]1(C#N)O[C@@H](c2ccc3c(N)ncnn23)[C@H](OC(=O)C(C)C)[C@@H]1OC(=O)C(C)C)Oc1ccccc1 (single isomer, unassigned) [Example 144] | 0.022 µM | 0.022 µM | 0.034 µM | 6.17 µM | 6.17 µM | – | – | –
CC(C)C(=O)O[C@H]1[C@H](c2ccc3c(N)ncnn23)O[C@](C#N)(COP(=O)(N[C@@H](C)C(=O)OCC2CCOCC2)Oc2ccccc2)[C@H]1OC(=O)C(C)C (single isomer, unassigned) [Example 183] | – | – | – | – | – | 0.05 µM | 0.069 µM | 3.65 µM
CC(C)C(=O)O[C@H]1[C@H](c2ccc3c(N)ncnn23)O[C@](C#N)(COP(=O)(N[C@@H](C)C(=O)OC2COC2)Oc2ccccc2)[C@H]1OC(=O)C(C)C (single isomer, unassigned) [Example 186] | – | – | – | – | – | 0.004 µM | 0.041 µM | 4.22 µM
CC(C)C(=O)O[C@H]1[C@H](c2ccc3c(N)ncnn23)O[C@](C#N)(COP(=O)(N[C@@H](C)C(=O)OCC2COC2)Oc2ccccc2)[C@H]1OC(=O)C(C)C (single isomer, unassigned) [Example 201] | – | – | – | – | – | 0.014 µM | 0.092 µM | 7.69 µM
CCC(CC)COC(=O)[C@H](C)N[P@](=O)(OC[C@@]1(C#N)O[C@@H](c2ccc3c(N)ncnn23)C(OC(=O)C(C)C)[C@@H]1OC(=O)C(C)C)Oc1ccccc1 (stereo in doubt) [Example 86, (2R,3S,4R,5S)-5-(4-aminopyrrolo[2,1-f][1,2,4]triazin-7-yl)-2-cyano-2-((((S)-(((S)-1-(2-ethylbutoxy)-1-oxopropan-2-yl)amino)(phenoxy)phosphoryl)oxy)methyl) tetrahydrofuran-3,4-diyl bis(2-methylpropanoate)] | 0.024 µM | – | 0.1 µM | 8.95 µM | – | – | – | –
CC(C)C(=O)O[C@H]1[C@H](c2ccc3c(N)ncnn23)O[C@](C#N)(CO[P@@](=O)(N[C@@H](C)C(=O)OC2CCCCC2)Oc2ccccc2)[C@H]1OC(=O)C(C)C [Example 77, (2R,3S,4S,5S)-5-(4-aminopyrrolo[2,1-f][1,2,4]triazin-7-yl)-2-cyano-2-((((S)-(((S)-1-(cyclohexyloxy)-1-oxopropan-2-yl)amino)(phenoxy)phosphoryl)oxy)methyl) tetrahydrofuran-3,4-diyl bis(2-methylpropanoate)] | 0.024 µM | – | 0.057 µM | 5.39 µM | – | – | – | –
CCC(=O)O[C@H]1[C@H](c2ccc3c(N)ncnn23)O[C@](C#N)(CO[P@@](=O)(N[C@@H](C)C(=O)OC2CCCCC2)Oc2ccccc2)[C@H]1OC(=O)CC [Example 82, (2R,3S,4S,5S)-5-(4-aminopyrrolo[2,1-f][1,2,4]triazin-7-yl)-2-cyano-2-((((S)-(((S)-1-(cyclohexyloxy)-1-oxopropan-2-yl)amino)(phenoxy)phosphoryl)oxy)methyl) tetrahydrofuran-3,4-diyl dipropionate] | 0.032 µM | – | 0.058 µM | 7.63 µM | – | – | – | –
CCC(=O)O[C@H]1[C@H](c2ccc3c(N)ncnn23)O[C@](C#N)(CO[P@@](=O)(N[C@@H](C)C(=O)OC(C)C)Oc2ccccc2)[C@H]1OC(=O)CC [Example 90, (2R,3S,4S,5S)-5-(4-Aminopyrrolo[2,1-f][1,2,4]triazin-7-yl)-2-cyano-2-((((S)-(((S)-1-isopropoxy-1-oxopropan-2-yl)amino)(phenoxy)phosphoryl)oxy)methyl) tetrahydrofuran-3,4-diyl dipropionate] | 0.045 µM | – | 0.109 µM | 24.3 µM | – | – | – | –
CCC(=O)O[C@H]1[C@H](c2ccc3c(N)ncnn23)O[C@](C#N)(CO[P@@](=O)(N[C@@H](C)C(=O)OCC2CC2)Oc2ccccc2)[C@H]1OC(=O)CC [Example 99] | – | – | – | – | – | 0.014 µM | 0.058 µM | 6.31 µM
COC(=O)[C@H](C)N[P@](=O)(OC[C@@]1(C#N)O[C@@H](c2ccc3c(=N)n(COP(=O)(O)O)cnn23)[C@H](OC(=O)C(C)C)[C@@H]1OC(=O)C(C)C)Oc1ccccc1 [Example 259, (2R,3S,4S,5S)-2-cyano-5-(4-imino-3-((phosphonooxy)methyl)-3,4-dihydropyrrolo[2,1-f][1,2,4]triazin-7-yl)-2-((((S)-(((S)-1-methoxy-1-oxopropan-2-yl)amino)(phenoxy)phosphoryl)oxy)methyl)tetrahydrofuran-3,4-diyl bis(2-methylpropanoate)] | 0.011 µM | – | 0.036 µM | 5.36 µM | – | – | – | –

From patent US12264173B2 (GILEAD SCIENCES, INC., priority 2020, dated 2025)
